Earlier results in patent EP0262930B1, “Process for forming a colour positive image” (KONICA CORPORATION, priority 1986, dated 1988).

Details: partition coefficient n-octanol/water; solvents not desired in the color developing solution

In the case of `CCCCCO` [1-Pentanol], the “log P” value is given as “log P 0.4 or more”.

In the case of `OCCOCc1ccccc1` [2-Benzyloxyethanol], the “log P” value is listed as “log P 0.41”.

In the case of `OCc1ccccc1` [Benzyl alcohol], the “log P” value is listed as “log P 1.0”.

For `NCc1ccccc1` [Benzylamine], the “log P” value is given as “log P 0.4 or more”.

In the case of `CCCCOCCOCCO` [Diethylene glycol monobutyl ether], the “log P” value is given as “log P 0.41”.

In the case of `Oc1ccccc1` [Phenol], the “log P” value is listed as “log P 0.4 or more”.

For `OCc1ccc(O)cc1` [p-Hydroxybenzyl alcohol], the “log P” value is listed as “log P 0.4 or more”.

In the case of `Cc1ccc(CO)cc1` [p-Tolylcarbinol], the “log P” value is given as “log P 1.36”.
